# ChEMBL document CHEMBL2057131, “Novel steroid inhibitors of glucose 6-phosphate dehydrogenase” (J Med Chem, 2012)
# Tests used:
# [1] = Aqueous solubility of the compound in phosphate buffer by turbidimetric method; type: physicochemical
# [2] = Permeability of the compound from apical to basolateral side of human Caco2 cells; type: ADME, cell-based; conditions: Caco-2, read-out: permeability
# [3] = molecular target: T1, Glucose-6-phosphate 1-dehydrogenase (Homo sapiens, UniProt P11413); assay: Inhibition of human recombinant N-terminal His tagged G6PD expressed in Escherichia coli JM109 (DE3) cells assessed as production of NADPH after 30 mins by Amplite fluorimetric assay
# T1 sequence (P11413 whole entry): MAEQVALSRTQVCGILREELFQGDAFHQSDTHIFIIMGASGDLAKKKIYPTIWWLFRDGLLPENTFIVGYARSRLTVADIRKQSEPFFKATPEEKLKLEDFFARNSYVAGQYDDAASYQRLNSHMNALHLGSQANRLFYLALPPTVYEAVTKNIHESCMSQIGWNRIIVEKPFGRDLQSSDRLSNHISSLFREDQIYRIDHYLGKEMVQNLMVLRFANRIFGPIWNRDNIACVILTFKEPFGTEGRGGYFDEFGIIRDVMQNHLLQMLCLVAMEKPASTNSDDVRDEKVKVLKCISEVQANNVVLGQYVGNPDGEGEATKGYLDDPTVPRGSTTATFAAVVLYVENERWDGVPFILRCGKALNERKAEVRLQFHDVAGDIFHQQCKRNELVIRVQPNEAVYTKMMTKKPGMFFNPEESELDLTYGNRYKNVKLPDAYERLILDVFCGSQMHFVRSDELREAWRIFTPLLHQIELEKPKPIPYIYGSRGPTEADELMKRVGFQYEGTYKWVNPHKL
# [4] = molecular target: T1, Glucose-6-phosphate 1-dehydrogenase; assay: Ratio of IC50 for G6PD in HEK293T cells to IC50 for human recombinant G6PD expressed in Escherichia coli JM109 (DE3) cells; conditions: HEK-293T
# [5] = molecular target: T1, Glucose-6-phosphate 1-dehydrogenase; assay: Inhibition of G6PD in HEK293T cells assessed as accumulation of 6-phosphogluconate after 5 hrs by LC-MS/MS analysis using 6-aminonicotinamide; type: cell-based, HEK-293T
# [6] = Efflux ratio of permeability of the compound from basolateral to apical side over apical to basolateral side of human Caco2 cells; type: ADME, cell-based; conditions: Caco-2
# [7] = Half life in human liver microsomes; type: ADME, Microsome
# in vitro = conditions: human, liver microsomes
# Cytochrome P450 2C9 = Cytochrome P450 2C9 (Homo sapiens, UniProt P11712); assay: Inhibition of CYP2C9 at > 25 uM; type: ADME
# Chain of Cytochrome P450 2C9 (P11712 whole entry): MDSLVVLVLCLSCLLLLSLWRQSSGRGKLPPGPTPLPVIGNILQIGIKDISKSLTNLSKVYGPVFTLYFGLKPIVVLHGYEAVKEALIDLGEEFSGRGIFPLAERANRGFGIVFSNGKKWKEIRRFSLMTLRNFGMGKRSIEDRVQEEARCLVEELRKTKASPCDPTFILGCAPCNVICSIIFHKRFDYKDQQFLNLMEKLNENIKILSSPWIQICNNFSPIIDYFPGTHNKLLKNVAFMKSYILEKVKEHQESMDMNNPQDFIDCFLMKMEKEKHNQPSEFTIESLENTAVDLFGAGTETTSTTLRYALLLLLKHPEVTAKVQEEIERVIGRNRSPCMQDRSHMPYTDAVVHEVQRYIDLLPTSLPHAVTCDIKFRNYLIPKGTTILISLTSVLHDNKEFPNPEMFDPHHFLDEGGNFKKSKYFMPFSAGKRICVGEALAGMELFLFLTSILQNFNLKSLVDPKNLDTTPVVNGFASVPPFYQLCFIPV
# Cytochrome P450 3A4 = Cytochrome P450 3A4 (Homo sapiens, UniProt P08684); assay: Inhibition of CYP3A4 at > 25 uM; type: ADME
# Chain of Cytochrome P450 3A4 (P08684 whole entry): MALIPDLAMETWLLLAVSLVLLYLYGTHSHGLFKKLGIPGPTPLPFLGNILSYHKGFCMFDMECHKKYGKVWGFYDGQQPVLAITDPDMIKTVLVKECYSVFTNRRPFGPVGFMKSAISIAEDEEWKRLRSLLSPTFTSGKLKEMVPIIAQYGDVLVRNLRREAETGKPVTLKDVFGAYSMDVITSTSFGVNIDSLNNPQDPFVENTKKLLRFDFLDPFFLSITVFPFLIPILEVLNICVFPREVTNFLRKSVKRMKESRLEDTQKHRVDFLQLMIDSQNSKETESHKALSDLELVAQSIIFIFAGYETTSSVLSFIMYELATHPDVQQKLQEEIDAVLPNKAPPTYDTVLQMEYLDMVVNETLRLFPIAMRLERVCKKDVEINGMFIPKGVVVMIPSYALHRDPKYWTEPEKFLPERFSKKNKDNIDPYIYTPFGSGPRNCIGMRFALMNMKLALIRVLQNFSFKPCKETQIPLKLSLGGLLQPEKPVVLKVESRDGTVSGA
# Cytochrome P450 2D6 = Cytochrome P450 2D6 (Homo sapiens, UniProt P10635); assay: Inhibition of CYP2D6 at > 25 uM; type: ADME
# Chain of Cytochrome P450 2D6 (P10635 whole entry): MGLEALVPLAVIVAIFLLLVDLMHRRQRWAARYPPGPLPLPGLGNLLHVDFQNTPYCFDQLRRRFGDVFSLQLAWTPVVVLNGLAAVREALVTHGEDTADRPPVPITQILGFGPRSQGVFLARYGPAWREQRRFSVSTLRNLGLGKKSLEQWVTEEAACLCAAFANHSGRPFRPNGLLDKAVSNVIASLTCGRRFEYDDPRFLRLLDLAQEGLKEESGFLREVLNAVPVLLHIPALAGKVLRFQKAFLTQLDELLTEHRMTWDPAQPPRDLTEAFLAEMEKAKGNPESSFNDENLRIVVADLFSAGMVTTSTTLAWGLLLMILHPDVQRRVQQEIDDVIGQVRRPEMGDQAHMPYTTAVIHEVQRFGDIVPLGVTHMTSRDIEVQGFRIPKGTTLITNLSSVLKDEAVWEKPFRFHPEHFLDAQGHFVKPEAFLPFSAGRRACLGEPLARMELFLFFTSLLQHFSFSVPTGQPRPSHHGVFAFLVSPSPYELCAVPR
# Cytochrome P450 2C19 = Cytochrome P450 2C19 (Homo sapiens, UniProt P33261); assay: Inhibition of CYP2C19 at > 25 uM; type: ADME
# Chain of Cytochrome P450 2C19 (P33261 whole entry): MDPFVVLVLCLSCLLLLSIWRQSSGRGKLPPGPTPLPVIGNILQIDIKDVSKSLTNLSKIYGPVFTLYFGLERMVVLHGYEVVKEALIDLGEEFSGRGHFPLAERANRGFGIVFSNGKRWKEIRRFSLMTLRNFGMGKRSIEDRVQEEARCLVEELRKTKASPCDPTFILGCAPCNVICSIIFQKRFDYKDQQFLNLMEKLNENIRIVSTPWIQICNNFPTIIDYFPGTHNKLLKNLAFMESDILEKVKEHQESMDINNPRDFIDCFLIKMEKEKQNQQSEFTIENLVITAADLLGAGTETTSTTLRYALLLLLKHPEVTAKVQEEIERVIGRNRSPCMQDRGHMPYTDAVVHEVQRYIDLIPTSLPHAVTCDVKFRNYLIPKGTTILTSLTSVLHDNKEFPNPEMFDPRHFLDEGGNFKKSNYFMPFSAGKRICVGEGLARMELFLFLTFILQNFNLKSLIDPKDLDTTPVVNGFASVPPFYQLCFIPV
# Cytochrome P450 1A = molecular target: T2, Cytochrome P450 1A (Homo sapiens, UniProt P04798+P05177); assay: Inhibition of CYP1A at > 25 uM; type: ADME
# T2 sequence (P04798 whole entry): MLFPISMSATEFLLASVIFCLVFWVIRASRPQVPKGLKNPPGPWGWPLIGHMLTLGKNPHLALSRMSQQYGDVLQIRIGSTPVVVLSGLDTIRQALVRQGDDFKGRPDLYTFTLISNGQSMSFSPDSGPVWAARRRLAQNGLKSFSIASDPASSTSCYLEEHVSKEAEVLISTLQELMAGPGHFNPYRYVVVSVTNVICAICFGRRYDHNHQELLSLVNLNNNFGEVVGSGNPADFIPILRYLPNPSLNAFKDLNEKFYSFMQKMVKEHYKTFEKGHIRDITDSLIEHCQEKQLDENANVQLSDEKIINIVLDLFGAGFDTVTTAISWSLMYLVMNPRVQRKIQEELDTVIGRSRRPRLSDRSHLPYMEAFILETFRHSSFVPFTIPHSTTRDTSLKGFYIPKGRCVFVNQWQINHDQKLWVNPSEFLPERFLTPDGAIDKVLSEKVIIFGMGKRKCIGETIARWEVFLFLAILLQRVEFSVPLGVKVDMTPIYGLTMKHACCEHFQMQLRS
# T2 sequence (P05177 whole entry): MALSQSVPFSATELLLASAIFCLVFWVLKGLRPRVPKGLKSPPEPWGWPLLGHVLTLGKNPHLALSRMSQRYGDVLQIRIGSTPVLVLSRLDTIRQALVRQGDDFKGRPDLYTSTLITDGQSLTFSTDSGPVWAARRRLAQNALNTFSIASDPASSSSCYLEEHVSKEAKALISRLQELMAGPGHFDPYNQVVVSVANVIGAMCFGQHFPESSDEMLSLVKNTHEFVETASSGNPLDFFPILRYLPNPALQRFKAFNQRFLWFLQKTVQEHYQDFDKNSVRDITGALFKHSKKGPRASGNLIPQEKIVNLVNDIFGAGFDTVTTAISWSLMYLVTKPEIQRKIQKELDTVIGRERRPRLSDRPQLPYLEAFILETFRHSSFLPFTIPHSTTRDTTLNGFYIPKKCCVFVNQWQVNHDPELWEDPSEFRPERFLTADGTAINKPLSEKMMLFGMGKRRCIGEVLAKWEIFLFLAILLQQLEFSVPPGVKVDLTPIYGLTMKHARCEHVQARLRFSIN
Structure (SMILES),solubility kinetic [1],Papp A→B [2],IC50 [3],Ratio IC50 [4],IC50 [5],efflux ratio [6],half-life [7],microsomal CLint (in vitro),inhibition (INH) (Cytochrome P450 2C9),inhibition (INH) (Cytochrome P450 3A4),inhibition (INH) (Cytochrome P450 2D6),inhibition (INH) (Cytochrome P450 2C19),inhibition (INH) (Cytochrome P450 1A)
CC(=O)[C@H]1CC[C@H]2[C@@H]3CC[C@H]4C[C@@H](NS(N)(=O)=O)CC[C@]4(C)[C@H]3CC[C@]12C,10 µM,2.1 ×10⁻⁶ cm/s,2 µM,4.6,9.2 µM,0.53,–,–,–,–,–,–,–
CC(=O)[C@H]1CC[C@H]2[C@@H]3CC[C@H]4C[C@@H](NS(C)(=O)=O)CC[C@]4(C)[C@H]3CC[C@]12C,3 µM,–,3.4 µM,1.4,4.8 µM,–,135 min,10.3 µL/min/mg,–,–,–,–,–
C[C@]12CC[C@H](O)C[C@@H]1CC[C@@H]1[C@@H]2CC[C@]2(C)[C@@H](C(=O)CO)CC[C@@H]12,> 100 µM,–,0.9 µM,13.7,12.3 µM,–,–,–,Not Active,Not Active,Not Active,Not Active,Not Active
C[C@]12CC[C@H](NS(N)(=O)=O)C[C@@H]1CC[C@@H]1[C@@H]2CC[C@]2(C)C(=O)CC[C@@H]12,30 µM,31.8 ×10⁻⁶ cm/s,1.2 µM,14.5,17.4 µM,0.66,–,–,–,–,–,–,–
CCNC(=O)N[C@H]1CC[C@@]2(C)[C@@H](CC[C@@H]3[C@@H]2CC[C@]2(C)C(=O)CC[C@@H]32)C1,30 µM,31.6 ×10⁻⁶ cm/s,1 µM,9.5,9.5 µM,0.54,24.4 min,56.8 µL/min/mg,–,–,–,–,–
C[C@]12CC[C@H](O)CC1=CC[C@@H]1[C@@H]2CC[C@]2(C)C(=O)CC[C@@H]12 [PRASTERONE],> 100 µM,–,11.3 µM,2.2,24.9 µM,–,–,–,–,–,–,–,–
C[C@]12CC[C@H](NS(C)(=O)=O)C[C@@H]1CC[C@@H]1[C@@H]2CC[C@]2(C)[C@@H](C(=O)CO)CC[C@@H]12,10 µM,17.4 ×10⁻⁶ cm/s,3.8 µM,9.2,35.2 µM,0.3,–,–,–,–,–,–,–
COC(=O)N[C@H]1CC[C@@]2(C)[C@@H](CC[C@@H]3[C@@H]2CC[C@]2(C)C(=O)CC[C@@H]32)C1,> 100 µM,–,1.5 µM,5.2,7.8 µM,–,–,–,–,–,–,–,–
C[C@]12CC[C@H](NS(N)(=O)=O)C[C@@H]1CC[C@@H]1[C@@H]2CC[C@]2(C)[C@@H](C(=O)CO)CC[C@@H]12,> 100 µM,13.1 ×10⁻⁶ cm/s,1.2 µM,11.8,14.1 µM,0.49,48.9 min,28.3 µL/min/mg,–,–,–,–,–
